In patent US20240358693A1, “METHODS OF TREATING PAIN” (Aisa Pharma, Inc., priority 2023, published 2024):

Tested on: participants with SSc-RP
Assay: Average duration of weekly RP attacks (minutes)
Type: in vivo, human
From the text: The absolute change in average duration of weekly RP attacks from baseline to the end of each dosing period was and will be a secondary outcome variable. The sponsor-developed participant-informed diary was and will be used to record data. Average duration of weekly RP attacks is defined as the total duration of RP attacks divided by total number of RP attacks within the last 7 days of each dosing period. Total duration of RP attacks during the last 7 days of screening period divided by the total number of RP attacks will be used as baseline for the analysis of all periods. The variable will be calculated similar to frequency data as before.

[1] = Pooled Cilnidipine 10 mg and Cilnidipine 10 mg + Tadalafil 5 mg, Excluding Outliers, by Baseline RCS, subgroup 2, ITT Population - Part A
[2] = Pooled Cilnidipine 10 mg and Cilnidipine 10 mg + Tadalafil 5 mg, ITT Part A
[3] = Pooled Cilnidipine 10 mg and Cilnidipine 10 mg + Tadalafil 5 mg, by Baseline RCS, subgroup 1, ITT Population - Part A
[4] = Pooled Cilnidipine 10 mg and Cilnidipine 10 mg + Tadalafil 5 mg, by Baseline RCS, subgroup 2, ITT Population - Part A
[5] = Pooled Cilnidipine 20 mg and Cilnidipine 20 mg + Tadalafil 5 mg, n=4, Excluding Outliers, ITT Part A
[6] = Pooled Cilnidipine 20 mg and Cilnidipine 20 mg + Tadalafil 5 mg, n=4, ITT Part A
[7] = Pooled Cilnidipine 20 mg and Cilnidipine 20 mg + Tadalafil 5 mg, Baseline RCS subgroup 1 (unnamed), ITT Part A
[8] = Pooled Cilnidipine 20 mg and Cilnidipine 20 mg + Tadalafil 5 mg, Baseline RCS subgroup 2 (unnamed), ITT Part A
[9] = Pooled Cilnidipine 20 mg and Cilnidipine 20 mg + Tadalafil 5 mg, Excluding Outliers, Baseline RCS subgroup 1 (unnamed), ITT Part A
[10] = Pooled Cilnidipine 20 mg and Cilnidipine 20 mg + Tadalafil 5 mg, Excluding Outliers, Baseline RCS subgroup 2 (unnamed), ITT Part A
[11] = Pooled Cilnidipine 20 mg and Cilnidipine 20 mg + Tadalafil 5 mg, Excluding Outliers, ITT Population - Part A
[12] = Pooled Cilnidipine 20 mg and Cilnidipine 20 mg + Tadalafil 5 mg, Excluding Outliers, by Baseline RCS, subgroup 1, ITT Population - Part A

## COCCOC(=O)C1=C(C)NC(C)=C(C(=O)OC/C=C/c2ccccc2)C1c1cccc([N+](=O)[O-])c1 (stereo not shown) [Cilnidipine, cilnidipine]
[1]
  Average Duration of Weekly RP Attacks (All Attacks) Change from Baseline, Mean: -20.38 min
  Average Duration of Weekly RP Attacks (All Attacks) Change from Baseline, Median: -20.38 min
  Average Duration of Weekly RP Attacks (All Attacks) Percent Change from Baseline, Mean: −37.36%
  Average Duration of Weekly RP Attacks (All Attacks) Percent Change from Baseline, Median: −37.36%
  Average Duration of Weekly RP Attacks (All Attacks), Mean: 34.17 min
  Average Duration of Weekly RP Attacks (All Attacks), Median: 34.17 min
[2]
  Average Duration of Weekly RP Attacks (All Attacks) Change from Baseline, Mean: -9.54 min
  Average Duration of Weekly RP Attacks (All Attacks) Change from Baseline, Median: -8.48 min
  Average Duration of Weekly RP Attacks (All Attacks) Percent Change from Baseline, Mean: −19.10%
  Average Duration of Weekly RP Attacks (All Attacks) Percent Change from Baseline, Median: −21.20%
  Average Duration of Weekly RP Attacks (All Attacks), Mean: 27.90 min
  Average Duration of Weekly RP Attacks (All Attacks), Median: 31.52 min
[3]
  Average Duration of Weekly RP Attacks (All Attacks) Change from Baseline, Mean: -4.13 min
  Average Duration of Weekly RP Attacks (All Attacks) Change from Baseline, Median: -4.13 min
  Average Duration of Weekly RP Attacks (All Attacks) Percent Change from Baseline, Mean: −9.97%
  Average Duration of Weekly RP Attacks (All Attacks) Percent Change from Baseline, Median: −9.97%
  Average Duration of Weekly RP Attacks (All Attacks), Mean: 24.76 min
  Average Duration of Weekly RP Attacks (All Attacks), Median: 24.76 min
[4]
  Average Duration of Weekly RP Attacks (All Attacks) Change from Baseline, Mean: -20.38 min
  Average Duration of Weekly RP Attacks (All Attacks) Change from Baseline, Median: -20.38 min
  Average Duration of Weekly RP Attacks (All Attacks) Percent Change from Baseline, Mean: −37.36%
  Average Duration of Weekly RP Attacks (All Attacks) Percent Change from Baseline, Median: −37.36%
  Average Duration of Weekly RP Attacks (All Attacks), Mean: 34.17 min
  Average Duration of Weekly RP Attacks (All Attacks), Median: 34.17 min
[5]
  Average Duration of Weekly Symptomatic RP Attacks, Change from Baseline, Mean: -7.51 min
  Average Duration of Weekly Symptomatic RP Attacks, Change from Baseline, Median: -3.55 min
  Average Duration of Weekly Symptomatic RP Attacks, Mean: 27.98 min
  Average Duration of Weekly Symptomatic RP Attacks, Median: 22.96 min
  Average Duration of Weekly Symptomatic RP Attacks, Percent Change from Baseline, Mean: −16.40%
  Average Duration of Weekly Symptomatic RP Attacks, Percent Change from Baseline, Median: −7.30%
[6]
  Average Duration of Weekly Symptomatic RP Attacks, Change from Baseline, Mean: -7.51 min
  Average Duration of Weekly Symptomatic RP Attacks, Change from Baseline, Median: -3.55 min
  Average Duration of Weekly Symptomatic RP Attacks, Mean: 27.98 min
  Average Duration of Weekly Symptomatic RP Attacks, Median: 22.96 min
  Average Duration of Weekly Symptomatic RP Attacks, Percent Change from Baseline, Mean: −16.40%
  Average Duration of Weekly Symptomatic RP Attacks, Percent Change from Baseline, Median: −7.30%
[7]
  Average Duration of Weekly Symptomatic RP Attacks, Change from Baseline, Mean: -1.01 min
  Average Duration of Weekly Symptomatic RP Attacks, Change from Baseline, Median: 3.24 min
  Average Duration of Weekly Symptomatic RP Attacks, Mean: 16.31 min
  Average Duration of Weekly Symptomatic RP Attacks, Median: 15.46 min
  Average Duration of Weekly Symptomatic RP Attacks, Percent Change from Baseline, Mean: −11.86%
  Average Duration of Weekly Symptomatic RP Attacks, Percent Change from Baseline, Median: 15.41%
[8]
  Average Duration of Weekly Symptomatic RP Attacks, Change from Baseline, Mean: -27.00 min
  Average Duration of Weekly Symptomatic RP Attacks, Change from Baseline, Median: -27.00 min
  Average Duration of Weekly Symptomatic RP Attacks, Mean: 63.00 min
  Average Duration of Weekly Symptomatic RP Attacks, Median: 63.00 min
  Average Duration of Weekly Symptomatic RP Attacks, Percent Change from Baseline, Mean: −30.00%
  Average Duration of Weekly Symptomatic RP Attacks, Percent Change from Baseline, Median: −30.00%
[9]
  Average Duration of Weekly Symptomatic RP Attacks, Change from Baseline, Mean: -1.01 min
  Average Duration of Weekly Symptomatic RP Attacks, Change from Baseline, Median: 3.24 min
  Average Duration of Weekly Symptomatic RP Attacks, Mean: 16.31 min
  Average Duration of Weekly Symptomatic RP Attacks, Median: 15.46 min
  Average Duration of Weekly Symptomatic RP Attacks, Percent Change from Baseline, Mean: −11.86%
  Average Duration of Weekly Symptomatic RP Attacks, Percent Change from Baseline, Median: 15.41%
[10]
  Average Duration of Weekly Symptomatic RP Attacks, Change from Baseline, Mean: -27.00 min
  Average Duration of Weekly Symptomatic RP Attacks, Change from Baseline, Median: -27.00 min
  Average Duration of Weekly Symptomatic RP Attacks, Mean: 63.00 min
  Average Duration of Weekly Symptomatic RP Attacks, Median: 63.00 min
  Average Duration of Weekly Symptomatic RP Attacks, Percent Change from Baseline, Mean: −30.00%
  Average Duration of Weekly Symptomatic RP Attacks, Percent Change from Baseline, Median: −30.00%
[11]
  Average Duration of Weekly RP Attacks (All Attacks) Change from Baseline, Mean: -4.77 min
  Average Duration of Weekly RP Attacks (All Attacks) Change from Baseline, Median: -2.73 min
  Average Duration of Weekly RP Attacks (All Attacks) Percent Change from Baseline, Mean: −13.86%
  Average Duration of Weekly RP Attacks (All Attacks) Percent Change from Baseline, Median: −2.74%
  Average Duration of Weekly RP Attacks (All Attacks), Mean: 27.61 min
  Average Duration of Weekly RP Attacks (All Attacks), Median: 22.36 min
[12]
  Average Duration of Weekly RP Attacks (All Attacks) Change from Baseline, Mean: 0.00 min
  Average Duration of Weekly RP Attacks (All Attacks) Change from Baseline, Median: 2.16 min
  Average Duration of Weekly RP Attacks (All Attacks) Percent Change from Baseline, Mean: −10.70%
  Average Duration of Weekly RP Attacks (All Attacks) Percent Change from Baseline, Median: 17.86%
  Average Duration of Weekly RP Attacks (All Attacks), Mean: 15.91 min
  Average Duration of Weekly RP Attacks (All Attacks), Median: 14.27 min
Pooled Cilnidipine 20 mg and Cilnidipine 20 mg + Tadalafil 5 mg, Excluding Outliers, by Baseline RCS, subgroup 2, ITT Population - Part A
  Average Duration of Weekly RP Attacks (All Attacks) Change from Baseline, Mean: -19.09 min
